Results: EPA's ToxRefDB 2

Key:
[1] = test system: rat; details: Carcinogenicity, fischer, Oral, Feed, dose end: 105 week, group: systemic
[2] = test system: mouse; details: Subchronic oral toxicity in rodents, b6c3f1, Feed, dose end: 14 week, group: systemic
[3] = test system: mouse; details: Carcinogenicity; b6c3f1; Oral; Feed; dose end: 105 week; group: systemic; systemic / in life observation / body weight / body weight + systemic / pathology microscopic / kidney / mineralization + systemic / …
[4] = test system: rat; details: Subchronic oral toxicity in rodents, fischer, Water, dose end: 14 week, group: systemic
[5] = test system: rat; details: Reproduction/developmental toxicity screening test, sprague dawley, Oral, Water, dose end: 1 generation, group: parental
[6] = test system: rat; details: Subchronic oral toxicity in rodents, sprague dawley, Water, dose end: 13 week, group: systemic
[7] = test system: mouse; details: Combined chronic toxicity/carcinogenicity, b6c3f1, Oral, Water, dose end: 105 week, group: systemic
[8] = test system: rat; details: Subchronic oral toxicity in rodents, other, Gavage/Intubation, dose end: 90 day, group: systemic
[9] = test system: rat; details: Reproduction/developmental toxicity screening test; sprague dawley; Oral; Water; dose end: 1 PND; group: parental; systemic / in life observation / water consumption / water consumption
[10] = test system: mouse; details: Subchronic oral toxicity in rodents, b6c3f1, Water, dose end: 14 week, group: systemic
[11] = test system: rat; details: Combined chronic toxicity/carcinogenicity, fischer, Oral, Water, dose end: 105 week, group: systemic
[12] = test system: dog; details: Chronic toxicity, beagle, Oral, Feed, dose end: 1 year, group: systemic
[13] = test system: rat; details: Subchronic oral toxicity in rodents, fischer, Feed, dose end: 13 week, group: systemic
[14] = test system: rat; details: Combined chronic toxicity/carcinogenicity; fischer; Oral; Feed; dose end: 2 year; group: systemic; systemic / pathology microscopic / kidney / dilatation + systemic / pathology microscopic / kidney / hyperplasia + systemic / pathology …
[15] = test system: mouse; details: Carcinogenicity, b6c3f1, Oral, Feed, dose end: 24 month, group: systemic
[16] = test system: mouse; details: Subchronic oral toxicity in rodents, b6c3f1, Feed, dose end: 13 week, group: systemic
[17] = test system: dog; details: Subchronic oral toxicity in nonrodent, beagle, Capsule, dose end: 90 day, group: systemic
[18] = test system: dog; details: Chronic toxicity, beagle, Oral, Capsule, dose end: 52 week, group: systemic
[19] = test system: rat; details: Prenatal developmental toxicity study, other, Oral, Gavage/Intubation, dose end: 15 GD
[20] = test system: rat; details: Multigenerational reproductive toxicity study, sprague dawley, Oral, Feed, dose end: 2 generation
[21] = test system: dog; details: Subchronic oral toxicity in nonrodent, beagle, Capsule, dose end: 90 day, group: systemic; remark: listed apart in the source
[22] = test system: rat; details: Combined chronic toxicity/carcinogenicity, sprague dawley, Oral, Feed, dose end: 104 week, group: systemic
[23] = test system: rat; details: Subchronic oral toxicity in rodents, sprague dawley, Feed, dose end: 3 month, group: systemic
[24] = test system: mouse; details: Carcinogenicity, cd1, Oral, Feed, dose end: 78 week, group: systemic
[25] = systemic / pathology microscopic / kidney / hyperplasia + systemic / pathology microscopic / liver / hyperplasia + systemic / pathology …
[26] = systemic / organ weight / liver / absolute + systemic / organ weight / liver / relative to body weight + systemic / pathology microscopic / …
[27] = systemic / clinical chemistry / alanine aminotransferase (alt/sgpt) / alanine aminotransferase (alt/sgpt) + systemic / clinical chemistry / …
[28] = systemic / pathology gross / sperm measure / sperm motility
[29] = systemic / in life observation / food consumption / food consumption + systemic / in life observation / water consumption / water …
[30] = systemic / in life observation / water consumption / water consumption
[31] = systemic / pathology gross / thyroid gland / enlarged + systemic / pathology microscopic / thyroid gland / cellular alteration
[32] = systemic / pathology gross / thyroid gland / enlarged + systemic / pathology microscopic / thyroid gland / cellular alteration + systemic / …
[33] = systemic / organ weight / thymus / absolute + systemic / organ weight / thymus / relative to body weight + systemic / organ weight / thymus…
[34] = systemic / in life observation / water consumption / water consumption + systemic / pathology gross / sperm measure / sperm motility
[35] = systemic / pathology microscopic / esophagus / hyperkeratosis + systemic / pathology microscopic / oral mucosa / [other] + systemic / …
[36] = systemic / clinical chemistry / alkaline phosphatase (alp/alk) / alkaline phosphatase (alp/alk) + systemic / pathology microscopic / kidney…
[37] = systemic / organ weight / heart / relative to body weight + systemic / organ weight / kidney / absolute + systemic / organ weight / kidney…
[38] = systemic / organ weight / brain / relative to body weight + systemic / organ weight / kidney / absolute
[39] = systemic / organ weight / brain / relative to body weight + systemic / organ weight / kidney / absolute + systemic / organ weight / kidney…
[40] = systemic / clinical chemistry / alkaline phosphatase (alp/alk) / alkaline phosphatase (alp/alk) + systemic / clinical chemistry / calcium / …
[41] = systemic / organ weight / liver / absolute + systemic / organ weight / liver / relative to body weight + systemic / clinical chemistry / …
[42] = group: developmental, developmental / developmental malformation / bone / full supernumerary
[43] = group: maternal, systemic / in life observation / body weight / body weight gain
[44] = group: offspring, systemic / in life observation / body weight / offspring (pup) weight
[45] = group: parental, systemic / in life observation / body weight / body weight + systemic / in life observation / food consumption / food consumption + systemic…
[46] = systemic / clinical chemistry / alkaline phosphatase (alp/alk) / alkaline phosphatase (alp/alk) + systemic / organ weight / liver / absolute…
[47] = systemic / in life observation / body weight / body weight gain + systemic / pathology microscopic / liver / hypertrophy + systemic / …
[48] = systemic / clinical chemistry / cholesterol / cholesterol + systemic / clinical chemistry / lipids / phospholipids + systemic / hematology…
[49] = systemic / hematology / platelet / platelet + systemic / clinical chemistry / triglycerides / triglycerides + systemic / clinical chemistry…

In the case of O=C(c1ccccc1)c1ccccc1 [Benzophenone], the LOAEL ([1]; systemic / in life observation / body weight / body weight + systemic / pathology microscopic / kidney / hyperplasia + systemic / pathology …) is reported as 30 mg/kg/day, the LEL [1, 25] is reported as 15 mg/kg/day and the NEL [1, 25] is reported as less than 15 mg/kg/day. The LOAEL ([2]; systemic / clinical chemistry / bile acids / bile acids + systemic / clinical chemistry / sorbitol dehydrogenase / sorbitol dehydrogenase + …) was 404 mg/kg/day, the LEL [2, 26] was 200 mg/kg/day and the NEL [2, 26] was less than 200 mg/kg/day. The LEL [3] was 35 mg/kg/day, the LOAEL [3] was 70 mg/kg/day and the NEL [3] was less than 35 mg/kg/day.
N#CC(Br)Br [Dibromoacetonitrile] gave an LOAEL [4, 27] greater than 11 mg/kg/day, an NEL [4, 27] of 2 mg/kg/day and an NOAEL [4, 27] of no less than 11 mg/kg/day. The LEL [4, 28] was 3 mg/kg/day, the LOAEL [5, 29] was greater than 8.2 mg/kg/day and the NEL [5, 29] was 1.4 mg/kg/day. It also gave an NOAEL [5, 29] of no less than 8.2 mg/kg/day, an LEL [5, 30] of 3.3 mg/kg/day and an LEL [6, 31] of 0.005 mg/kg/day. The NEL [6, 31] was less than 0.005 mg/kg/day, the LOAEL [6, 32] was greater than 5 mg/kg/day and the NOAEL [6, 32] was no less than 5 mg/kg/day. For the same compound, the LOAEL ([7]; systemic / in life observation / body weight / body weight) was 11 mg/kg/day, the NOAEL ([7]; systemic / in life observation / body weight / body weight + systemic / pathology microscopic / stomach / squamous cell papilloma + systemic…) was 6 mg/kg/day and the LEL [7, 30] was 3 mg/kg/day. It also gave an NEL [7, 30] of less than 3 mg/kg/day, an LEL ([8]; systemic / clinical chemistry / albumin / albumin) of 23 mg/kg/day and an NEL ([8]; systemic / clinical chemistry / albumin / albumin + systemic / clinical chemistry / globulins / globulins + systemic / clinical chemistry / …) of 6 mg/kg/day. It also gave an LOAEL [8, 33] greater than 45 mg/kg/day, an NOAEL [8, 33] of no less than 45 mg/kg/day and an LEL [9] of 5.3 mg/kg/day. It also gave an LOAEL [9] greater than 10.8 mg/kg/day, an NEL [9] of 1.9 mg/kg/day and an NOAEL [9] of no less than 10.8 mg/kg/day. It also gave an LOAEL [10, 34] greater than 18 mg/kg/day, an NOAEL [10, 34] of no less than 18 mg/kg/day and an LEL [10, 28] of 2 mg/kg/day. For the same compound, the NEL [10, 28] was less than 2 mg/kg/day, the LOAEL ([11]; systemic / pathology microscopic / esophagus / hyperkeratosis) was 4 mg/kg/day and the LEL ([11]; systemic / pathology microscopic / esophagus / hyperkeratosis + systemic / pathology microscopic / oral mucosa / [other] + systemic / in …) was 4 mg/kg/day. For the same compound, the NEL [11, 35] was 2 mg/kg/day and the NOAEL [11, 35] was 2 mg/kg/day.
With Cc1ccn2nc(S(=O)(=O)Nc3c(F)cccc3F)nc2n1 [Flumetsulam] the LOAEL [12, 36] was 500 mg/kg/day, the NEL [12, 36] was 20 mg/kg/day and the NOAEL [12, 36] was 100 mg/kg/day. It also gave an LEL ([12]; systemic / organ weight / pituitary gland / relative to body weight) of 100 mg/kg/day, an LOAEL [13, 27] of 1000 mg/kg/day and an NOAEL [13, 27] of 250 mg/kg/day. It also gave an NEL ([13]; systemic / hematology / erythrocyte (rbc) count differential / erythrocyte (rbc) + systemic / hematology / hemoglobin (hgb) / hemoglobin (…) of 2500 mg/kg/day, an LEL [14] of 1000 mg/kg/day and an LOAEL [14] of 1000 mg/kg/day. The NEL [14] was 500 mg/kg/day, the NOAEL [14] was 500 mg/kg/day and the NEL ([15]; systemic / organ weight / heart / relative to body weight) was 500 mg/kg/day. For the same compound, the LEL [15, 37] was 1000 mg/kg/day, the LOAEL [15, 37] was greater than 1000 mg/kg/day and the NOAEL [15, 37] was no less than 1000 mg/kg/day. The NEL [16, 38] was 1000 mg/kg/day, the NOAEL [16, 38] was 1000 mg/kg/day and the LEL [16, 39] was 5000 mg/kg/day. The LOAEL [16, 39] was 5000 mg/kg/day.
O=[N+]([O-])[O-].[Ag+] [Silver nitrate] was tested, and the LOAEL [17, 40] was 250 mg/kg/day, the NEL [17, 40] was 10 mg/kg/day and the NOAEL [17, 40] was 50 mg/kg/day. For the same compound, the LEL ([17]; systemic / in life observation / clinical signs / headflicking + systemic / in life observation / clinical signs / salivation + systemic / …) was 50 mg/kg/day.
For CC(C)(C)[C@H](O)/C(=C\c1ccc(Cl)cc1)n1cncn1 [Uniconazole-P], the NEL ([18]; systemic / clinical chemistry / alkaline phosphatase (alp/alk) / alkaline phosphatase (alp/alk) + systemic / organ weight / thymus / …) was 2 mg/kg/day, the LOAEL ([18]; systemic / organ weight / liver / absolute + systemic / organ weight / liver / relative to body weight) was 20 mg/kg/day and the LEL [18, 41] was 20 mg/kg/day. It also gave an NOAEL [18, 41] of 2 mg/kg/day, an LEL [19, 42] of 25 mg/kg/day and an LOAEL [19, 42] of 25 mg/kg/day. The NEL [19, 42] was 5 mg/kg/day, the NOAEL [19, 42] was 5 mg/kg/day and the LEL [19, 43] was 25 mg/kg/day. For the same compound, the LOAEL [19, 43] was 25 mg/kg/day, the NEL [19, 43] was 5 mg/kg/day and the NOAEL [19, 43] was 5 mg/kg/day. The LEL [20, 44] was 75 mg/kg/day, the LOAEL [20, 44] was 75 mg/kg/day and the NEL [20, 44] was 7.5 mg/kg/day. The NOAEL [20, 44] was 7.5 mg/kg/day, the LOAEL [20, 45] was 75 mg/kg/day and the NEL [20, 45] was 0.75 mg/kg/day. It also gave an NOAEL [20, 45] of 7.5 mg/kg/day, an LEL ([20]; group: parental, systemic / organ weight / liver / nos) of 7.5 mg/kg/day and an NEL [21, 40] of 5 mg/kg/day. It also gave an NOAEL [21, 40] of 5 mg/kg/day, an LEL [21, 46] of 20 mg/kg/day and an LOAEL [21, 46] of 20 mg/kg/day. The LOAEL [22, 47] was 39.4 mg/kg/day, the NOAEL [22, 47] was 7.78 mg/kg/day and the LEL ([22]; systemic / pathology microscopic / liver / hypertrophy + systemic / pathology microscopic / liver / vacuolization) was 7.78 mg/kg/day. The NEL ([22]; systemic / pathology microscopic / liver / hypertrophy + systemic / pathology microscopic / liver / vacuolization + systemic / in life …) was 1.48 mg/kg/day, the LOAEL [23, 48] was 100 mg/kg/day and the NOAEL [23, 48] was 10 mg/kg/day. It also gave an LEL [23, 49] of 3 mg/kg/day, an NEL [23, 49] of less than 3 mg/kg/day and an NEL ([24]; systemic / pathology microscopic / liver / adenoma + systemic / pathology microscopic / liver / adenoma/carcinoma combined + systemic / in …) of 225 mg/kg/day. For the same compound, the LOAEL ([24]; systemic / pathology microscopic / liver / hypertrophy + systemic / pathology microscopic / liver / inflammation + systemic / pathology …) was 225 mg/kg/day and the NOAEL ([24]; systemic / pathology microscopic / liver / hypertrophy + systemic / pathology microscopic / liver / necrosis + systemic / pathology …) was 30 mg/kg/day.
